Results taken from ChEMBL document CHEMBL1138818, “Design and synthesis of cyclic urea compounds: a pharmacological study for retinoidal activity” (2004).
Calls of active or inactive are those of the source. The rule behind the calls is not given here.

How the values were obtained:
HL-60 [1] = assay: Effective concentration required for induction of differentiation of HL-60 cells into mature granulocytes.( >10e-6= slight activity at 10e-6); type: functional; details: Homo sapiens, read-out: ED50 (the source's name)
HL-60 [2] = assay: Effective concentration required for induction of differentiation of HL-60 cells into mature granulocytes. IA = No activity at E-6; type: functional, cell-based; details: Homo sapiens
HL-60 [3] = assay: Effective concentration required for induction of differentiation of HL-60 cells into mature granulocytes.; type: functional; details: Homo sapiens, read-out: ED50 (the source's name)

Structure (SMILES)	ED50 (HL-60 [2])	EC50 (HL-60 [3])	other results
CC1(C)CCC(C)(C)c2cc(NC(=O)Nc3ccc(C(=O)O)cc3)ccc21	–	–	EC50 (HL-60 [1]): > 10000 nM
CC(C)(C)c1ccc(N2CCN(c3ccc(C(=O)O)cc3)C2=O)cc1	inactive	–	–
CC1(C)CCC(C)(C)c2cc(N3CCCN(c4ccc(C(=O)O)cc4)C3=O)ccc21	inactive	–	–
CC1=C(/C=C/C(C)=C/C=C/C(C)=C/C(=O)O)C(C)(C)CCC1 [TRETINOIN]	–	2.4 nM	–
CC(C)(C)c1cc(N2CCN(c3ccc(C(=O)O)cc3)C2=O)cc(C(C)(C)C)c1	–	8.3 nM	–
O=C(O)c1ccc(N2CCN(c3ccccc3)C2=O)cc1	inactive	–	–
CC1(C)CCC(C)(C)c2cc(NC(=O)c3ccc(C(=O)O)cc3)ccc21 [TAMIBAROTENE]	–	0.8 nM	–
CC(C)(C)c1ccc(N2CCCN(c3ccc(C(=O)O)cc3)C2=O)cc1	inactive	–	–
O=C(O)c1ccc(N2CCCN(c3ccccc3)C2=O)cc1	inactive	–	–
CC1(C)CCC(C)(C)c2cc(N3CCN(c4ccc(C(=O)O)cc4)C3=O)ccc21	–	120 nM	–
CC(C)(C)c1cc(N2CCCN(c3ccc(C(=O)O)cc3)C2=O)cc(C(C)(C)C)c1	–	490 nM	–
